Test results taken from patent US20180265867A1, “NUCLEIC ACID MOLECULES WITH ENHANCED ACTIVITY” (priority 2015, published 2018).
d = 2'-deoxy (DNA); r = 2'-OH (RNA)

How the values were obtained:
[1] = Thermal denaturation (Tm) of siRNA duplexes; type: physicochemical; conditions: for Tm: 7.5 mM phosphate buffer pH 7.0 containing 140 mM KCl, 1 μM strands, 40-95° C.; for Δ Tm: Tm relative to canonical siRNA (dT2); for drop in Tm: as compared to canonical siRNA
Experimental: Thermal denaturation studies of siRNA was carried out in phosphate buffer, pH 7.0, containing 140 mM KCl. UV absorbance was monitored at 260 nm in the temperature range from 40 to 95° C. using a Lambda 35 UV-Vis spectrophotometer equipped with a Peltier temperature programmer with a heating rate of 0.5° C./min. Samples (1 μM RNA) were denatured at 90° C. for 3 min followed by slow cooling to 27° C. prior to the measurements. Tm values were obtained from the maxima of the first derivatives of the melting curves. All Tm values given are the averages of three independent sets of experiments (±0.3° C. error range).

[2] = tested on: GAPDH; test: GAPDH gene knockdown in MG63 cells by RT-PCR; type: cell-based, human; conditions: MG63 cells; for GAPDH gene knockdown: 50 nM, 24 h
Experimental: At 70% confluency, a day prior to transfection, the cells were seeded at a density of 35 000 cells in a 24-well cell culture plate to achieve 60-80% confluence at the day of transfection. Cell penetrating siRNAs (cpRNAs) of different lengths were transfected at 50 nM concentrations with Magnet Assisted Transfection (MATra-si) reagent for siRNAs (IBA GmbH, Göttingen, Germany) according to the manufacturers' protocols. Briefly, the siRNA was mixed with MATra-si reagent composed of supermagnetic ironoxide nanoparticles and incubated for 20 min. A complex was formed which was added to the cells to be transfected. A strong magnetic force was applied beneath the cells for 15 min. This forced the complex to be drawn into the cells by the magnetic field, and as a result the siRNA was delivered directly into the cytosol. For carrier free transfection experiments, cpRNAs were simply added to cells lines MG63, HOB, HCT116, fibroblasts and keratinocytes at 50 nM concentrations. Cells were also transfected with negative control siRNA (scrambled sequence) and cells left untreated were taken as controls. Each transfection was performed in triplicate. Post transfection, cells were incubated for 24 hours.
For the experiments involving lysosomotropic agent chloroquine (CQ), CQ was first neutralized to pH 7.4 using 1 M NaOH prior to use. MG63 cells were transfected with dT2, dT5, dT8, (dT5)2, as(dT5), and bl(dT5) siRNA in presence or absence of 100 μM CQ or using MATra-si and incubated for 24 h. Similar experiments were performed for other cpRNAs namely, dA5, dT5, dG5, (dT5)2, rA5 and dC5. For the control experiment, cells were either left untreated or transfected with negative control siRNA (scrambled sequence). Each transfection experiment was performed in triplicate.
After performing transfection experiments for 24 h, 48 h and 72 h respectively, total RNA was isolated from cells by adding 500 μl of lysis buffer (Qiagen, Germany), followed by homogenization of cell lysates using QIAshredder (Qiagen, Germany). RNA was extracted from cell lysates by RNeasy Mini Kit (Qiagen, Germany). All RNA samples were treated with DNase using TURBO-DNAfree (Ambion, USA). Agilent 2100 BioAnalyzer (Agilent Technologies, Palo Alto, Calif.) was used to confirm high quality of all RNA samples, which reports an RNA Integrity Number (RIN) that takes into account the entire electrophoretic RNA trace produced in the analysis. A RIN of greater than or equal to seven indicates the RNA is suitable for high stringency applications.
cDNA synthesis was performed in triplicate using total RNA reverse transcribed using High Capacity cDNA reverse transcription kit (Applied Biosystems, USA), with non-template control added to ensure a lack of signal in assay background. Reactions were incubated on a 96-well Applied Biosystems 9800 Fast Thermal Cycler PCR System at 37° C. for 60 min followed by 95° C. for 5 min. The real-time PCR reactions were carried out with 10 μl of 2×TaqMan® Universal PCR Master Mix, no AmpErase® UNG (Applied Biosystems, USA), 9 μl diluted cDNA, and 1 μl of TaqMan gene specific assay mix in a 20 μl final reaction volume. Reference gene beta-actin (ACTB) (Applied Biosystems, USA) was selected as control for normalization of TaqMan data. The assay included a no-template control, a standard curve of five serial dilution points (in steps of 3-fold) of cDNA mixture. Probes specific for IFN-α (Hs01022060_m1), IFN-β (Hs01077958_s1), IFN-γ (Hs00985251_m1), ACTB(Hs01060665_g1) and GAPDH (Hs02758991_g1) were purchased from Applied Biosystems. The amplification was carried out using the 7500 Fast Real-Time PCR System (Applied Biosystems, USA) using a 40-cycle program. The 7500 software automatically calculates raw Ct (cycle threshold) values. Data from samples with a Ct value equal to or below 35 were further analyzed. […]

[3] = tested on: Ctnnb1 (β-Catenin); test: Ctnnb1 expression in MC3T3-E1 cells by quantitative RT-PCR; type: cell-based, mouse
Experimental: MC3T3-E1 cells were cultured in α-MEM (Sigma-Aldrich, Haverhill, UK) medium containing 10% FBS, 1% L-Glutamine, and 1% antibiotics (PeSt) at 37° C. with 5% CO2. One day prior to the miRNA treatment, 35,000 cells were plated per each well of a 24-well plate. On the experiment day, cells were replaced with 2% heat inactivated-FBS containing α-MEM medium with 1% L-Glutamine, and 1% antibiotics (PeSt). miR-34a-CP (final concentration: 50 nM) was given to the each well. Mirvana scrambled miRNA mimic was used as a negative control.
After 24 hours of transfection, and incubation, RNA extraction was performed by using miRCURY RNA Isolation Kit—Cell and Plant (#300100) and protocol from Exiqon, Vedbæk, Denmark. RNA samples were treated with DNase for 30 minutes at 37 degrees, thereafter inactivated with a DNase inactivation solution (TUTRBO DNase AM2238 thermofisher). Thereafter, RNA concentrations were measured using NanoDrop ND-1000 from NanoDrop Technologies, Wilmington, Del.
The cDNA was made from the total RNA using High Capacity cDNA reverse transcription kit (Applied Biosystems, USA). Reactions were performed on a 96-well Bio-Rad Thermal Cycler PCR System at 37° C. for 60 minutes, and at 95° C. for 5 min respectively. Real-time PCR reactions were performed as follows: 10 μl of 2×TaqMan® Universal PCR Master Mix, no AmpErase® UNG (Applied Biosystems, USA), 9 μl 1:5 diluted cDNA, and 1 μl of TaqMan gene specific assay mix. Final volume of the reaction mix was 20 uL. Internal control gene beta-actin (ACTB) (Applied Biosystems, USA) was selected as control for normalization of TaqMan data. The qRT-PCR reaction comprised a non-template control of cDNA in order to rule out any non-specific reading. Taqman probes for Ctnnb1, Sox9, Actb, were obtained from Applied Biosystems. The qRT-PCR amplification was carried out using the Bio-Rad qRT-PCR Thermocycler.
In order to achieve the transfection reagent free delivery of therapeutically potential microRNAs, we tested miR-34a and compared with miR-34a-CP. Since microRNAs unlike siRNAs have multiple targets in the cell, and there is a necessity to reduce the off-target and undesirable effects if any, we have also designed siRNA model siR-34a-CP as stated above. We have used mouse preosteoblast cell line MC3T3-E1 obtained from calvarial bone for the in-vitro functional validation of cell-penetrating molecules. On the day before transfection experiment, 35000 MC3T3-E1 cells were cultured per each well of the 24-well culture plate in alpha-Minimum Essential Medium with 10% heat inactivated FBS, 1% L-Glutamine, 1% antibiotics (Pe/St). […] 5% CO2. Thereafter, RNA extraction, cDNA preparation, and quantitative real-time PCR was performed by using TaqMan procedure.

[4] = without transfection reagent MaTra (FIG. 12)

| Substance | Tm [1] [°C] | Δ Tm [1] [°C] | drop in Tm [1] [°C] | GAPDH gene knockdown ([2]; carrier-free transfection) [%] | other results |
| --- | --- | --- | --- | --- | --- |
| (dT5)2: Symmetrical GAPDH siRNA, sense SEQ ID NO: 3 and antisense SEQ ID NO: 5, dT5 overhang at both 3′-ends (sense CCGAGCCACAUCGCUCAGATTTTT; antisense UCUGAGCGAUGUGGCUCGGTTTTT; sugars from the 5' end r19 d5, backbone not given here) | 80.1 | −1.1 | ~1 | 65 | enhancement in activity compared to canonical siRNA ([2]; MATra-si transfection): 10%; GAPDH gene knockdown ([2]; MATra-si transfection): 70% |
| as(dT5): GAPDH siRNA, sense SEQ ID NO: 1 with dT2, antisense SEQ ID NO: 5 with dT5 3′-overhang (sense CCGAGCCACAUCGCUCAGATT; antisense UCUGAGCGAUGUGGCUCGGTTTTT; sense: sugars from the 5' end r19 d2, backbone not given here; antisense: sugars from the 5' end r19 d5, backbone not given here) | 79.5 | −1.7 |  | 20 |  |
| bl(dT5): GAPDH siRNA, sense SEQ ID NO: 3 with dT5, blunt ended antisense SEQ ID NO: 11 without overhang (sense CCGAGCCACAUCGCUCAGATTTTT; antisense UCUGAGCGAUGUGGCUCGG; sense: sugars from the 5' end r19 d5, backbone not given here; antisense: RNA, backbone not given here) | 79.1 | −2.1 |  | 60 | decrease in activity ([2]; 3′-dT2 of antisense strand removed, versus dT5): 20% |
| dA5: GAPDH siRNA, sense SEQ ID NO: 6 with dA5 3′-overhang, antisense SEQ ID NO: 2 with dT2 (sense CCGAGCCACAUCGCUCAGAAAAAA; antisense UCUGAGCGAUGUGGCUCGGTT; sense: sugars from the 5' end r19 d5, backbone not given here; antisense: sugars from the 5' end r19 d2, backbone not given here) | 79.6 | −1.6 | ~1.5 | 80 | RNAi activity among different 5-nt candidates ([2]; FIG. 2B): highest RNAi activity |
| dC5: GAPDH siRNA, sense SEQ ID NO: 8 with dC5 3′-overhang, antisense SEQ ID NO: 2 with dT2 (sense CCGAGCCACAUCGCUCAGACCCCC; antisense UCUGAGCGAUGUGGCUCGGTT; sense: sugars from the 5' end r19 d5, backbone not given here; antisense: sugars from the 5' end r19 d2, backbone not given here) | 80.9 | −0.3 |  |  |  |
| dG5: GAPDH siRNA, sense SEQ ID NO: 7 with dG5 3′-overhang, antisense SEQ ID NO: 2 with dT2 (sense CCGAGCCACAUCGCUCAGAGGGGG; antisense UCUGAGCGAUGUGGCUCGGTT; sense: sugars from the 5' end r19 d5, backbone not given here; antisense: sugars from the 5' end r19 d2, backbone not given here) | 79.2 | −2.0 | ~2 |  |  |
| miR-34a: Natural miR-34a duplex, sense SEQ ID NO: 20, antisense SEQ ID NO: 21 (sense CAAUCAGCAAGUAUACUGCCCU; antisense UGGCAGUGUCUUAGCUGGUUGU; unmodified RNA) [reference compound] |  |  |  |  | Ctnnb1 expression ([3]; transfected with MaTra (FIG. 12)): induced over expression of Ctnnb1; Ctnnb1 expression [3, 4]: did not show any effect on the expression levels of Ctnnb1 |
| rA5: GAPDH siRNA, sense SEQ ID NO: 9 with ribo A5 3′-overhang, antisense SEQ ID NO: 10 with U2 (sense CCGAGCCACAUCGCUCAGAAAAAA; antisense UCUGAGCGAUGUGGCUCGGUU; RNA, backbone not given here) | 79.0 | −2.2 |  | 60 |  |
| siR-34a-CP: Cell penetrating siRNA analog of miR-34a, sense SEQ ID NO: 24 with dA5, antisense SEQ ID NO: 25 (sense AAUCAGCUAAGUAUACUGCCAAAAAA; antisense UGGCAGUGUACUUAGCUGGUUGU; sense: sugars from the 5' end r21 d5, backbone not given here; antisense: RNA, backbone not given here) |  |  |  |  | Ctnnb1 expression ([3]; 50 nM, 24 h, alone without transfection reagent (FIG. 11)): up regulation of Ctnnb1; Ctnnb1 expression [3, 4]: up regulation of Ctnnb1 |
